“And” between values parts separate entries of the source, which are not always exact repeats. Identical values can stand only once. Toxic doses and inconclusive results are not listed. Cut-off read from the data, not from the text of the source: active = T/C of 150% or more; inactive = T/C below 125%.
System: L1210 leukemia ip in BDF1 mice, survival T/C
Experiment: NCI In Vivo Anticancer Drug Screen. Data for tumor model L1210 Leukemia (intraperitoneal) in B6D2F1 (BDF1) mice
Settings: endpoint: mean survival time, higher = longer survival
In short: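 Mice bearing the transplanted tumor received compound or vehicle. Survival of the treated group was divided by that of the vehicle-treated control group to give the ratio.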

[1] = dose: 100.0 mg/kg/injection, schedule: Q01DX009 (ip), vehicle: Klucel (hydroxypropylcellulose) (HPC)
[2] = dose: 100.0 mg/kg/injection, schedule: Q04DX003 (ip), vehicle: Klucel (hydroxypropylcellulose) (HPC)
[3] = dose: 200.0 mg/kg/injection, schedule: Q01DX009 (ip), vehicle: Klucel (hydroxypropylcellulose) (HPC)
[4] = dose: 200.0 mg/kg/injection, schedule: Q04DX003 (ip), vehicle: Klucel (hydroxypropylcellulose) (HPC)
[5] = dose: 400.0 mg/kg/injection, schedule: Q01DX009 (ip), vehicle: Klucel (hydroxypropylcellulose) (HPC)
[6] = dose: 400.0 mg/kg/injection, schedule: Q04DX003 (ip), vehicle: Klucel (hydroxypropylcellulose) (HPC)
[7] = dose: 500.0 mg/kg/injection, schedule: Q01DX Z (ip), vehicle: methylcellulose (MC)
[8] = dose: 100.0 mg/kg/injection, schedule: Q01DX001 (ip), vehicle: saline
[9] = dose: 200.0 mg/kg/injection, schedule: Q01DX001 (ip), vehicle: saline
[10] = dose: 100.0 mg/kg/injection, schedule: Q01DX009 (ip), vehicle: saline
[11] = dose: 100.0 mg/kg/injection, schedule: Q04DX003 (ip), vehicle: saline
[12] = dose: 200.0 mg/kg/injection, schedule: Q01DX009 (ip), vehicle: saline
[13] = dose: 200.0 mg/kg/injection, schedule: Q04DX003 (ip), vehicle: saline
[14] = dose: 400.0 mg/kg/injection, schedule: Q04DX003 (ip), vehicle: saline
[15] = dose: 100.0 mg/kg/injection, schedule: Q01DX009 (ip), vehicle: saline with Tween-80
[16] = dose: 200.0 mg/kg/injection, schedule: Q01DX009 (ip), vehicle: saline with Tween-80
[17] = dose: 400.0 mg/kg/injection, schedule: Q01DX009 (ip), vehicle: saline with Tween-80
[18] = dose: 400.0 mg/kg/injection, schedule: Q01DX001 (ip), vehicle: saline

Measured: T/C

C(=N\OCc1ccccc1)/c1ccccn1
inactive: [1] 94 % of control | [2] 96 % of control | [3] 101 % of control | [4] 97 % of control | [5] 100 % of control | [6] 103 % of control

Cc1ccccc1N(C=O)c1ccccc1C
inactive: dose: 50.0 mg/kg/injection, schedule: Q01DX Z (ip), vehicle: methylcellulose (MC) 111 % of control | dose: 80.0 mg/kg/injection, schedule: Q01DX Z (ip), vehicle: methylcellulose (MC) 115 % of control | dose: 125.0 mg/kg/injection, schedule: Q01DX Z (ip), vehicle: methylcellulose (MC) 98 % of control and 114 % of control | dose: 180.0 mg/kg/injection, schedule: Q01DX Z (ip), vehicle: methylcellulose (MC) 115 % of control | dose: 240.0 mg/kg/injection, schedule: Q01DX Z (ip), vehicle: methylcellulose (MC) 97 % of control | dose: 250.0 mg/kg/injection, schedule: Q01DX Z (ip), vehicle: methylcellulose (MC) 93 % of control | dose: 300.0 mg/kg/injection, schedule: Q01DX Z (ip), vehicle: methylcellulose (MC) 109 % of control | dose: 360.0 mg/kg/injection, schedule: Q01DX Z (ip), vehicle: methylcellulose (MC) 100 % of control | [7] 106 % of control | dose: 1000.0 mg/kg/injection, schedule: Q01DX Z (ip), vehicle: methylcellulose (MC) 98 % of control

CCN(CC)C(=O)CCC(=O)O
inactive: dose: 100.0 mg/kg/injection, schedule: Q04DX002 (ip), vehicle: saline 89 % of control | dose: 200.0 mg/kg/injection, schedule: Q04DX002 (ip), vehicle: saline 103 % of control | dose: 400.0 mg/kg/injection, schedule: Q04DX002 (ip), vehicle: saline 103 % of control

NC(=S)NN=C1CCCCCCCCCCC1
inactive: dose: 50.0 mg/kg/injection, schedule: Q01DX001 (ip), vehicle: carboxymethylcellulose (CMC) 106 % of control | dose: 100.0 mg/kg/injection, schedule: Q01DX001 (ip), vehicle: carboxymethylcellulose (CMC) 98 % of control | dose: 200.0 mg/kg/injection, schedule: Q01DX001 (ip), vehicle: carboxymethylcellulose (CMC) 95 % of control | dose: 400.0 mg/kg/injection, schedule: Q01DX001 (ip), vehicle: carboxymethylcellulose (CMC) 88 % of control

COc1cccc(C(=O)C(CCC#N)c2ccccc2)c1 (stereo not given)
inactive: [1] 98 % of control | [2] 106 % of control | [3] 98 % of control | [4] 100 % of control | [5] 96 % of control | [6] 95 % of control

CCC(=O)c1ccc(N=Nc2c(N)nc(N)nc2N)cc1
inactive: [8] 110 % of control | [9] 94 % of control

Cc1c(C(=O)O)cc2n(c1=O)Cc1cc3ccccc3nc1-2
inactive: [10] 90 % of control | [11] 95 % of control | [12] 86 % of control | [13] 106 % of control | [14] 98 % of control

NC(=Nc1ccc(N)cc1)C(N)=Nc1ccc(N)cc1
inactive: dose: 50.0 mg/kg/injection, schedule: Q01DX009 (ip), vehicle: saline with Tween-80 97 % of control | [15] 95 % of control and 98 % of control | dose: 100.0 mg/kg/injection, schedule: Q04DX003 (ip), vehicle: saline with Tween-80 96 % of control | [16] 106 % of control | dose: 200.0 mg/kg/injection, schedule: Q04DX003 (ip), vehicle: saline with Tween-80 98 % of control | [17] 96 % of control and 112 % of control | dose: 400.0 mg/kg/injection, schedule: Q04DX003 (ip), vehicle: saline with Tween-80 91 % of control

O=S(=O)(O)c1cccc2cccc(Cl)c12
inactive: [15] 99 % of control | [10] 95 % of control | [11] 109 % of control | [16] 94 % of control | [12] 97 % of control | [13] 105 % of control | [17] 96 % of control | dose: 400.0 mg/kg/injection, schedule: Q01DX009 (ip), vehicle: saline 103 % of control | [14] 115 % of control

c1ccc2c(c1)Cc1nc3ccccc3nc1-2
inactive: dose: 25.0 mg/kg/injection, schedule: Q01DX009 (ip), vehicle: water 93 % of control | dose: 50.0 mg/kg/injection, schedule: Q01DX009 (ip), vehicle: water 91 % of control | dose: 100.0 mg/kg/injection, schedule: Q01DX009 (ip), vehicle: water 101 % of control | dose: 200.0 mg/kg/injection, schedule: Q01DX009 (ip), vehicle: water 93 % of control | dose: 400.0 mg/kg/injection, schedule: Q01DX009 (ip), vehicle: water 96 % of control

O=C(O)c1cc([N+](=O)[O-])ccc1Oc1cccc([N+](=O)[O-])c1
inactive: dose: 222.0 mg/kg/injection, schedule: Q01DX Z (ip), vehicle: methylcellulose (MC) 93 % of control | dose: 333.0 mg/kg/injection, schedule: Q01DX Z (ip), vehicle: methylcellulose (MC) 90 % of control | [7] 93 % of control

O=[N+]([O-])c1ccc(C[N+]2(CCC[N+]3(Cc4ccc([N+](=O)[O-])cc4)CCCC3)CCCC2)cc1
inactive: dose: 9.38 mg/kg/injection, schedule: Q01DX001 (ip), vehicle: other 107 % of control | dose: 18.75 mg/kg/injection, schedule: Q01DX001 (ip), vehicle: other 105 % of control

CCCC(CCC)NC(=O)c1ccccc1
inactive: dose: 25.0 mg/kg/injection, schedule: Q04DX002 (ip), vehicle: saline with Tween-80 104 % of control | dose: 50.0 mg/kg/injection, schedule: Q04DX002 (ip), vehicle: saline with Tween-80 95 % of control | dose: 100.0 mg/kg/injection, schedule: Q04DX002 (ip), vehicle: saline with Tween-80 95 % of control

CC1(C)CCC2CCCCC2O1 (stereo not given)
inactive: [8] 102 % of control | [9] 98 % of control | [18] 96 % of control

CCOC(=O)/C=C/c1c(C)[nH]c(=O)[nH]c1=O
inactive: [8] 94 % of control | dose: 150.0 mg/kg/injection, schedule: Q04DX003 (ip), vehicle: saline 102 % of control | [9] 93 % of control | dose: 300.0 mg/kg/injection, schedule: Q04DX003 (ip), vehicle: saline 96 % of control | [18] 93 % of control | dose: 600.0 mg/kg/injection, schedule: Q04DX003 (ip), vehicle: saline 103 % of control

O=[N+]([O-])c1ccc2c(c1)P(=O)(O)c1cc([N+](=O)[O-])ccc1-2
inactive: dose: 75.0 mg/kg/injection, schedule: Q01DX001 (ip), vehicle: saline 96 % of control | dose: 150.0 mg/kg/injection, schedule: Q01DX001 (ip), vehicle: saline 95 % of control | dose: 300.0 mg/kg/injection, schedule: Q01DX001 (ip), vehicle: saline 98 % of control

CCOC(=O)Cc1ccccc1
inactive: [15] 97 % of control | dose: 175.0 mg/kg/injection, schedule: Q04DX003 (ip), vehicle: saline with Tween-80 91 % of control | [16] 104 % of control | dose: 265.0 mg/kg/injection, schedule: Q04DX003 (ip), vehicle: saline with Tween-80 106 % of control | [17] 99 % of control

O=C(Nc1ccccc1)C(CCCCN1C(=O)c2ccccc2C1=O)N1C(=O)c2ccccc2C1=O (stereo not given)
inactive: [1] 95 % of control | [3] 106 % of control | [5] 100 % of control
